This note sets out measurements from US6855687B2 (The Board of Regents The University of Texas System, priority 2000, dated 2005).

Read-outs that look alike come from different tables or passages of the source.

For the experiment, the target named is thrombin receptor. The experiment in a line: Specific binding of 125I thrombin to rat chondrocytes (Scatchard analysis). On the procedure: Primary cultures of rat articular chondrocytes were isolated and prepared for in vitro analysis using established methods (see Kuettner, K E., et.al., J. Cell Biology 93: 743-750, 1982). Briefly, cartilage pieces were dissected from the shoulder of rats and the pieces were digested with trypsin for one hour and with collagenase for three hours in tissue culture medium (DMEM) at 37 C. with stirring. The cells were plated in flasks at high density (50,000 cells/cm sq.) and were culture in DMEM containing antibiotics an ascorbic acid at 37° C. in an atmosphere of 5% CO2.

As for thrombin, the Kd is 0.1 nM (Scatchard analysis, 125I thrombin, three separate experiments, read-out: affinity of very high affinity binding sites) and roughly 0.1 nM (summary statement of Example 1, read-out: apparent affinity (3000 sites)).
